Test results published in patent publication US9101136B2, “Synergistic herbicide/fungicide composition containing certain pyridine carboxylic acids and certain fungicides” (Dow AgroSciences LLC, priority 2010, dated 2015).

How the values were obtained:
Assay type in all cases: in vivo
[1] = tested on: Russian thistle (Salsola iberica L; SASKR); assay: Postemergence herbicidal activity of mixtures on Russian thistle
Protocol: (§1) Seeds of the desired test plant species were planted in Sun Gro MetroMix 306 planting mixture, which typically has a pH of 6.0 to 6.8 and an organic matter content of about 30 percent, in plastic pots with a surface area of 103.2 square centimeters (cm^2). When required to ensure good germination and healthy plants, a fungicide treatment and/or other chemical or physical treatment was applied. The plants were grown for 7-36 days (d) in a greenhouse with an approximate 14-hour (h) photoperiod which was maintained at about 18° C. during the day and 17° C. during the night. Nutrients and water were added on a regular basis and supplemental lighting was provided with overhead metal halide 1000-Watt lamps as necessary. The plants were employed for testing when they reached the second or third true leaf stage.
(§2) Treatments consisted of a cereal fungicide compound (as listed in Tables 1 through 34) and the cereal herbicide, 4-amino-3-chloro-6-(4-chloro-2-fluoro-3-methoxyphenyl)pyridine-2-carboxylic acid, alone and in combination. Weighed amounts of acid, esters (methyl) or salts (triethylammonium, TEA) of 4-amino-3-chloro-6-(4-chloro-2-fluoro-3-methoxyphenyl)pyridine-2-carboxylic acid (Compound I) were placed in 25 milliliter (mL) glass vials and dissolved in a volume of 97:3 volume-to-volume (v/v) acetone/dimethyl sulfoxide (DMSO) to obtain 4.5 milligrams active ingredient per milliliter (mg ai/mL) concentrated solutions. […] The concentrated solutions of Compound I were diluted to 1.5 mg ai/mL with the addition of 2 volumes of an aqueous mixture containing acetone, water, isopropyl alcohol, DMSO, Agri-dex crop oil concentrate, and Triton® X-77 surfactant in a 64.7:26.0:6.7:2.0:0.7:0.01 v/v ratio. A dilution solution was prepared by mixing 1 volume of 97:3 v/v acetone/DMSO and 2 volumes of an aqueous mixture containing acetone, water, isopropyl alcohol, DMSO, Agri-dex crop oil concentrate, and Triton® X-77 surfactant in a 64.7:26.0:6.7:2.0:0.7:0.01 v/v ratio. Compound requirements are based upon a 12 mL application volume at a rate of 187 liters per hectare (L/ha). The concentrated solutions of the cereal fungicides were prepared following the same procedure. Weighed amounts of fungicide were placed in 25 mL glass vials and dissolved in a volume of 97:3 v/v acetone/DMSO to obtain concentrated fungicide solutions. The concentrated solutions of the safener were prepared following the same procedure. Weighed amounts of safener were placed in 25 mL glass vials and dissolved in a volume of 97:3 v/v acetone/DMSO to obtain concentrated safener solutions.
(§3) Spray solutions of the cereal herbicide and the fungicidal compound mixtures were prepared by adding the concentrated solutions to the appropriate amount of dilution solution to form 12 mL spray solution with active ingredients in combinations. Spray solutions of the cereal herbicide, herbicide safener and the fungicidal compound mixtures were prepared by adding the concentrated solutions to the appropriate amount of dilution solution to form 12 mL spray solution with active ingredients in combinations.
(§4) Formulated compounds were applied to the plant material with an overhead Mandel track sprayer equipped with 8002E nozzles calibrated to deliver 187 L/ha over an application area of 0.503 square meters (m^2) at a spray height of 18 inches […] above average plant canopy. Control plants were sprayed in the same manner with the solvent blank.
(§5) The treated plants and control plants were placed in a greenhouse as described above and watered by sub-irrigation to prevent wash-off of the test compounds. After 20-22 d, the condition of the test plants as compared with that of the control plants was determined visually and scored on a scale of 0 to 100 percent where 0 corresponds to no injury and 100 corresponds to complete kill. […]

[2] = tested on: wild pansy (Viola tricolor L; VIOTR); assay: Postemergence herbicidal activity of mixtures on wild pansy; conditions: Viola tricolor, post-emergence
Protocol: as §1, §2, §3, §4, §5

[3] = tested on: kochia (Kochia scoparia L; KCHSC); assay: Postemergence herbicidal activity of mixtures on kochia; design: pest or weed control: dose or concentration left out as unconfirmed; conditions: for KCHSC Ob (observed control): alone
Protocol: as §1, §2, §3, §4, §5

[4] = tested on: bird's-eye speedwell (Veronica persica L; VERPE); assay: Postemergence herbicidal activity of mixtures on bird's-eye speedwell; conditions: Veronica persica, post-emergence, read-out: VERPE Ob
Protocol: as §1, §2, §3, §4, §5

[5] = tested on: scented mayweed (Matricaria chamomila L; MATCH); assay: Postemergence herbicidal activity of mixtures on scented mayweed; design: pest or weed control: dose or concentration left out as unconfirmed; conditions: for MATCH Ob (observed control): alone
Protocol: as §1, §2, §3, §4, §5

Fc1ccc([C@]2(Cn3cncn3)O[C@H]2c2ccccc2Cl)cc1 (racemic) [Epoxiconazole, rel-1-[[(2R,3S)-3-(2-chlorophenyl)-2-(4-fluorophenyl)oxiranyl]methyl]-1H-1,2,4-triazole]
0%: pest or weed control at 31.25 g/ha ([1]; Salsola tragus, post-emergence, fungicide 31.25 g/ha alone, read-out: SASKR Ob) | pest or weed control at 31.25 g/ha ([2]; fungicide 31.25 g/ha alone, read-out: VIOTR Ob) | pest or weed control at 31.25 g/ha ([3]; Bassia scoparia, post-emergence, fungicide 31.25 g/ha alone, read-out: KCHSC Ob) | pest or weed control at 31.25 g/ha ([4]; fungicide 31.25 g/ha alone) | pest or weed control at 31.25 g/ha ([5]; Matricaria, post-emergence, fungicide 31.25 g/ha alone, read-out: MATCH Ob)

COC(=O)Nc1nc2ccccc2[nH]1 [Carbendazim, methyl 1H-benzimidazol-2-ylcarbamate]
0%: pest or weed control at 62.5 g/ha ([2]; fungicide 62.5 g/ha alone, read-out: VIOTR Ob) | pest or weed control at 62.5 g/ha ([3]; Bassia scoparia, post-emergence, fungicide 62.5 g/ha alone, read-out: KCHSC Ob)

N#Cc1c(Cl)c(Cl)c(Cl)c(C#N)c1Cl [Chlorothalonil, 2,4,5,6-tetrachloro-1,3-benzenedicarbonitrile]
0%: pest or weed control at 250 g/ha ([1]; Salsola tragus, post-emergence, fungicide 250 g/ha alone, read-out: SASKR Ob) | pest or weed control at 250 g/ha ([2]; fungicide 250 g/ha alone, read-out: VIOTR Ob) | pest or weed control at 250 g/ha ([3]; Bassia scoparia, post-emergence, fungicide 250 g/ha alone, read-out: KCHSC Ob) | pest or weed control at 250 g/ha ([4]; fungicide 250 g/ha alone) | pest or weed control at 250 g/ha ([5]; Matricaria, post-emergence, fungicide 250 g/ha alone, read-out: MATCH Ob)

Cc1cc(C2CC2)nc(Nc2ccccc2)n1 [Cyprodinil, 4-cyclopropyl-6-methyl-N-phenyl-2-pyrimidinamine]
0%: pest or weed control at 187.5 g/ha ([1]; Salsola tragus, post-emergence, fungicide 187.5 g/ha alone, read-out: SASKR Ob)

OC(Cn1cncn1)(c1ccc(F)cc1)c1ccccc1F (stereo not drawn) [Flutriafol, α-(2-fluorophenyl)-α-(4-fluorophenyl)-1H-1,2,4-triazole-1-ethanol]
0%: pest or weed control at 21.25 g/ha ([1]; Salsola tragus, post-emergence, fungicide 21.25 g/ha alone, read-out: SASKR Ob) | pest or weed control at 21.25 g/ha ([2]; fungicide 21.25 g/ha alone, read-out: VIOTR Ob) | pest or weed control at 21.25 g/ha ([3]; Bassia scoparia, post-emergence, fungicide 21.25 g/ha alone, read-out: KCHSC Ob) | pest or weed control at 21.25 g/ha ([5]; Matricaria, post-emergence, fungicide 21.25 g/ha alone, read-out: MATCH Ob)

CO/N=C(/C(=O)OC)c1ccccc1COc1ccccc1C [Kresoxim-methyl, methyl (αE)-α-(methoxyimino)-2-[(2-methylphenoxy)methyl]benzeneacetate]
0%: pest or weed control at 25 g/ha ([5]; Matricaria, post-emergence, fungicide 25 g/ha alone, read-out: MATCH Ob)

CC1(C)CCC(Cc2ccc(Cl)cc2)C1(O)Cn1cncn1 (stereo not drawn) [Metconazole, 5-[(4-chlorophenyl)methyl]-2,2-dimethyl-1-(1H-1,2,4-triazol-1-ylmethyl)cyclopentanol]
0%: pest or weed control ([3]; Bassia scoparia, post-emergence, read-out: KCHSC Ob) | pest or weed control ([5]; Matricaria, post-emergence, read-out: MATCH Ob)

COc1cc(C)c(C(=O)c2c(OC)ccc(Br)c2C)c(OC)c1OC [Metrafenone, (3-bromo-6-methoxy-2-methylphenyl)(2,3,4-trimethoxy-6-methylphenyl)methanone]
0%: pest or weed control at 37.5 g/ha ([1]; Salsola tragus, post-emergence, fungicide 37.5 g/ha alone, read-out: SASKR Ob) | pest or weed control at 37.5 g/ha ([2]; fungicide 37.5 g/ha alone, read-out: VIOTR Ob) | pest or weed control at 37.5 g/ha ([5]; Matricaria, post-emergence, fungicide 37.5 g/ha alone, read-out: MATCH Ob)

CCCOc1nc2ccc(I)cc2c(=O)n1CCC [Proquinazid, 6-iodo-2-propoxy-3-propyl-4(3H)-quinazolinone]
0%: pest or weed control at 12.5 g/ha ([2]; fungicide 12.5 g/ha alone, read-out: VIOTR Ob) | pest or weed control at 12.5 g/ha ([5]; Matricaria, post-emergence, fungicide 12.5 g/ha alone, read-out: MATCH Ob)

OC(Cc1ccccc1Cl)(Cn1[nH]cnc1=S)C1(Cl)CC1 (stereo not drawn) [Prothioconazole, 2-[2-(1-chlorocyclopropyl)-3-(2-chlorophenyl)-2-hydroxypropyl]-1,2-dihydro-3H-1,2,4-triazole-3-thione]
0%: pest or weed control at 50 g/ha ([1]; Salsola tragus, post-emergence, fungicide 50 g/ha alone, read-out: SASKR Ob) | pest or weed control at 50 g/ha ([3]; Bassia scoparia, post-emergence, fungicide 50 g/ha alone, read-out: KCHSC Ob) | pest or weed control at 50 g/ha ([4]; fungicide 50 g/ha alone) | pest or weed control at 50 g/ha ([5]; Matricaria, post-emergence, fungicide 50 g/ha alone, read-out: MATCH Ob)

CCCN(CC)CC1COC2(CCC(C(C)(C)C)CC2)O1 (stereo not drawn) [Spiroxamine, 8-(1,1-dimethylethyl)-N-ethyl-N-propyl-1,4-dioxaspiro[4.5]decane-2-methanamine]
0%: pest or weed control at 180 g/ha ([2]; alone, 180 g/ha, read-out: VIOTR Ob (observed control)) | KCHSC Ob (observed control) ([3]; 180 g/ha) | MATCH Ob (observed control) ([5]; 180 g/ha)

COc1ccnc(C(=O)N[C@H]2COC(=O)[C@H](Cc3ccccc3)[C@@H](OC(=O)C(C)C)[C@H](C)OC2=O)c1OCOC(=O)C(C)C [compound II, isobutyric acid (3S,6S,7R,8R)-8-benzyl-3-[(3-isobutyryloxymethoxy-4-methoxypyridine-2-carbonyl)-amino]-6-methyl-4,9-dioxo-[1,5]dioxonan-7-yl ester]
0%: SASKR Ob (observed control) ([1]; alone, 40.5 g/ha) | pest or weed control at 40.5 g/ha ([2]; read-out: VIOTR Ob (observed control)) | KCHSC Ob (observed control) ([3]; 40.5 g/ha) | MATCH Ob (observed control) ([5]; 40.5 g/ha)
